Results: patent US7396837B2, “Antitumoral analogs of lamellarins” (Pharma Mar, S.A.U., priority 2002, dated 2008)

Columns and labels:
K-562 = test: SRB colorimetric cell growth inhibition assay, K-562; assay type: cell-based; details: K-562
In short: (§1)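 Triplicate-well SRB colorimetry following continuous sample exposure of human tumour cells; reported parameters are GI, TGI for cytostatic effect, and LC for cytotoxic effect.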

A-549 = test: SRB colorimetric cell growth inhibition assay, A-549; assay type: cell-based; details: A-549
In short: as §1

SK-MEL-28 = test: SRB colorimetric cell growth inhibition assay, SK-MEL-28; assay type: cell-based; details: MEL-28
In short: as §1

HT-29 = test: SRB colorimetric cell growth inhibition assay, HT-29; assay type: cell-based; details: HT-29
In short: as §1

LoVo = test: SRB colorimetric cell growth inhibition assay, LoVo; assay type: cell-based; details: LOVO
In short: as §1

LoVo-Dox = test: SRB colorimetric cell growth inhibition assay, LoVo-Dox (MDR); assay type: cell-based; details: LOVO-DOX
In short: as §1

DU-145 = test: SRB colorimetric cell growth inhibition assay, DU-145; assay type: cell-based; details: DU-145
In short: as §1

LNCaP = test: SRB colorimetric cell growth inhibition assay, LNCaP; assay type: cell-based; details: LN-caP
In short: as §1

SK-BR-3 = test: SRB colorimetric cell growth inhibition assay, SK-BR-3; assay type: cell-based; details: SK-BR-3
In short: as §1

IGROV = test: SRB colorimetric cell growth inhibition assay, IGROV; assay type: cell-based; details: IGROV
In short: as §1

IGROV-ET = test: SRB colorimetric cell growth inhibition assay, IGROV-ET (ET-743 resistant); assay type: cell-based; details: IGROV-ET
In short: as §1

PANC-1 = test: SRB colorimetric cell growth inhibition assay, PANC-1; assay type: cell-based; details: PANC-1
In short: as §1

human topoisomerase I = molecular target: T1, human topoisomerase I (Homo sapiens, UniProt P11387); test: Topoisomerase I DNA relaxation assay (supercoiled plasmid DNA); assay type: biochemical; details: supercoiled plasmid DNA, each compound tested at 1 μM, agarose gel with ethidium bromide
T1 sequence (P11387 1-765): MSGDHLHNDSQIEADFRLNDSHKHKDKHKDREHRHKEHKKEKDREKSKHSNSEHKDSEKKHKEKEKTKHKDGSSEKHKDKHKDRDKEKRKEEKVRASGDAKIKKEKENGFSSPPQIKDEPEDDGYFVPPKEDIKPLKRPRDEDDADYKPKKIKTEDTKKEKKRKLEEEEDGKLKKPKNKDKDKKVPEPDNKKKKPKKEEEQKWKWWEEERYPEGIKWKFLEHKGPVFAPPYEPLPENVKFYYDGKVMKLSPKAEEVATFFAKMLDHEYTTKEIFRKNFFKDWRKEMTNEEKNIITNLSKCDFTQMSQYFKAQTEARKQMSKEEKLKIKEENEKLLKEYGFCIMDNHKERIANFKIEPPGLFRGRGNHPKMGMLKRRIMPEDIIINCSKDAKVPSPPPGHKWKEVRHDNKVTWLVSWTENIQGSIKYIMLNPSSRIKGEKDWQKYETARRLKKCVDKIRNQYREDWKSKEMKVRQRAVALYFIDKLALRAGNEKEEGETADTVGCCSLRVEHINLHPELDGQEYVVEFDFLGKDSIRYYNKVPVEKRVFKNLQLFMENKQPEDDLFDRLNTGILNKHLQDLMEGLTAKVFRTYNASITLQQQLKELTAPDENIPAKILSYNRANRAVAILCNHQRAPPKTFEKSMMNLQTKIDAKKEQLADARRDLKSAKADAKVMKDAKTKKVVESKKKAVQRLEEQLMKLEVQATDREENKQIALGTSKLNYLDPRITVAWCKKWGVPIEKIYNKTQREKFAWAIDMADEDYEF
Procedure: Two assays, based on DNA relaxation and DNA cleavage (Bailly, C. DNA relaxation and cleavage assays to study topoisomerase I inhibitors. Methods Enzymol. 2001, 340, 610-623) were used evaluate the effects of the lamellarin analogs on the catalytic activity of human topoisomerase I.
In the first assay, a supercoiled plasmid DNA was relaxed with topoisomerase I in the absence or presence of the test compounds, each tested at 1 μM. DNA relaxation products were then resolved by gel electrophoresis on agarose gels containing ethidium bromide to stain the DNA.

SKOV-3 = test: SRB colorimetric cell growth inhibition assay, SKOV-3; assay type: cell-based; details: SKOV-3
Description: (§2) A colorimetric type of assay, using sulforhodamine B (SRB) reaction has been adapted for a quantitative measurement of cell growth and viability (following the technique described by P. A. Skehan, et al., J. Natl. Cancer Inst. 1990, 82, 1107-1112).
(§3) This form of assay employs 96 well cell culture microplates of 9 mm diameter (T. Mosmann et al., J. of Immunological Methods 1983, 65, 55-63; G. T. Faircloth et al., J. of Tissue and Culture Methods 1988, 11, 201-205).
(§4) Most of the cell lines are obtained from American Type Culture Collection (ATCC) derived from different human cancer types.
(§5) The values for mean +/− SD of data from triplicate wells are calculated. Some parameters for cellular responses can be calculated: GI=growth inhibition, TGI=total growth inhibition (cytostatic effect) and LC=cell killing (cytotoxic effect).

H-MEC-1 = test: SRB colorimetric cell growth inhibition assay, H-MEC-1; assay type: cell-based; details: H-MEC-1
Description: as §2, §3, §4, §5

[1] = total growth inhibition (cytostatic effect)

## COc1cc(-c2c3n(c4c(=O)oc5cc(OS(C)(=O)=O)c(OC)cc5c24)CCc2cc(OS(C)(=O)=O)c(OC)cc2-3)ccc1OS(C)(=O)=O [Compound 22]
K-562; GI=growth inhibition, read-out: GI50 K-562
  GI50: 0.67 µM
K-562; cell killing (cytotoxic effect), read-out: LC50 K-562
  CC50: 13.6 µM
K-562; [1]
  TGI K-562: 4.77E−06 Molar
A-549; GI=growth inhibition, read-out: GI50 A-549
  GI50: 0.89 µM
A-549; cell killing (cytotoxic effect), read-out: LC50 A-549
  CC50: 13.6 µM
A-549; [1]
  TGI A-549: 7.73E−06 Molar
SK-MEL-28; GI=growth inhibition, read-out: GI50 MEL-28
  GI50: 0.332 µM
SK-MEL-28; cell killing (cytotoxic effect), read-out: LC50 MEL-28
  CC50: 13.6 µM
SK-MEL-28; [1]
  TGI MEL-28: 3.56E−06 Molar
HT-29; GI=growth inhibition, read-out: GI50 HT-29
  GI50: 0.879 µM
HT-29; cell killing (cytotoxic effect), read-out: LC50 HT-29
  CC50: 13.6 µM
HT-29; [1]
  TGI HT-29: 1.36E−05 Molar
LoVo; GI=growth inhibition, read-out: GI50 LOVO
  GI50: 0.484 µM
LoVo; cell killing (cytotoxic effect), read-out: LC50 LOVO
  CC50: 13.6 µM
LoVo; [1]
  TGI LOVO: 2.49E−06 Molar
LoVo-Dox; GI=growth inhibition, read-out: GI50 LOVO-DOX
  GI50: 6.59 µM
LoVo-Dox; cell killing (cytotoxic effect), read-out: LC50 LOVO-DOX
  CC50: 13.6 µM
LoVo-Dox; [1]
  TGI LOVO-DOX: 1.36E−05 Molar
DU-145; GI=growth inhibition, read-out: GI50 DU-145
  GI50: 0.743 µM
DU-145; cell killing (cytotoxic effect), read-out: LC50 DU-145
  CC50: 13.6 µM
DU-145; [1]
  TGI DU-145: 8.10E−06 Molar
LNCaP; GI=growth inhibition, read-out: GI50 LN-caP
  GI50: 0.564 µM
LNCaP; cell killing (cytotoxic effect), read-out: LC50 LN-caP
  CC50: 13.6 µM
LNCaP; [1]
  TGI LN-caP: 1.82E−06 Molar
SK-BR-3; GI=growth inhibition, read-out: GI50 SK-BR-3
  GI50: 0.257 µM
SK-BR-3; cell killing (cytotoxic effect), read-out: LC50 SK-BR-3
  CC50: 7.16 µM
SK-BR-3; [1]
  TGI SK-BR-3: 1.81E−06 Molar
IGROV; GI=growth inhibition, read-out: GI50 IGROV
  GI50: 0.787 µM
IGROV; cell killing (cytotoxic effect), read-out: LC50 IGROV
  CC50: 13.6 µM
IGROV; [1]
  TGI IGROV: 8.54E−06 Molar
IGROV-ET; GI=growth inhibition, read-out: GI50 IGROV-ET
  GI50: 2.89 µM
IGROV-ET; cell killing (cytotoxic effect), read-out: LC50 IGROV-ET
  CC50: 13.6 µM
IGROV-ET; [1]
  TGI IGROV-ET: 1.36E−05 Molar
PANC-1; GI=growth inhibition, read-out: GI50 PANC-1
  GI50: 0.976 µM
PANC-1; cell killing (cytotoxic effect), read-out: LC50 PANC-1
  CC50: 13.6 µM
PANC-1; [1]
  TGI PANC-1: 1.36E−05 Molar
Human topoisomerase I
  stimulation of DNA cleavage by topoisomerase I / inhibition of topoisomerase I (nicked DNA band) in DNA relaxation assay: inactive
SKOV-3; GI=growth inhibition, read-out: GI50 SKOV-3
  GI50: 0.201 µM
SKOV-3; cell killing (cytotoxic effect), read-out: LC50 SKOV-3
  LC50 (concentration causing 50% net cell killing): 13.6 µM
SKOV-3; [1]
  TGI SKOV-3: 2.22E−06 Molar
H-MEC-1; GI=growth inhibition, read-out: GI50 H-MEC-1
  GI50: 0.856 µM
H-MEC-1; cell killing (cytotoxic effect)
  LC50 (concentration giving 50% net cell killing): 10.4 µM
H-MEC-1; [1]
  TGI H-MEC-1: 2.91E−06 Molar
